Measured values reported in patent EP0606804B1, “Marker for neurotensin receptor” (MARTINEX R & D INC., priority 1992, dated 2001).
Where no end group is shown, it is not given here. FTC = fluorescein thiocarbamyl

B1: N-fluoresceyl thiocarbamyl-[Glu1] neurotensin (peptide)
peptide: {FTC}-ELYENKPRRPYIL
notes: Synthetic 13-residue neurotensin analogue with Glu in place of pGlu at position 1, carrying one fluorescein per peptide; Molecular weight 2080; also called N-FTC-[Glu1]NT; FTC-[Glu1]NT

Tests used:
Solubility = format: physicochemical; settings: distilled water or aqueous buffer
Stability / shelf life = format: physicochemical; settings: protected from light and maintained at 4°C
[1] = Toxicity (statement, no method given)
[2] = biological target: T1, neurotensin receptor on purified brain membranes from adult male mice (mouse, UniProt O88319 1-424); test: competition with 0.1 nM 125I-Tyr3-neurotensin on mouse brain membranes, filtration, 20 min at 22 C
T1 construct: whole, on cells; This is the native receptor in a brain membrane preparation, not on intact cells; also called mouse brain membranes
T1 sequence (O88319 whole entry): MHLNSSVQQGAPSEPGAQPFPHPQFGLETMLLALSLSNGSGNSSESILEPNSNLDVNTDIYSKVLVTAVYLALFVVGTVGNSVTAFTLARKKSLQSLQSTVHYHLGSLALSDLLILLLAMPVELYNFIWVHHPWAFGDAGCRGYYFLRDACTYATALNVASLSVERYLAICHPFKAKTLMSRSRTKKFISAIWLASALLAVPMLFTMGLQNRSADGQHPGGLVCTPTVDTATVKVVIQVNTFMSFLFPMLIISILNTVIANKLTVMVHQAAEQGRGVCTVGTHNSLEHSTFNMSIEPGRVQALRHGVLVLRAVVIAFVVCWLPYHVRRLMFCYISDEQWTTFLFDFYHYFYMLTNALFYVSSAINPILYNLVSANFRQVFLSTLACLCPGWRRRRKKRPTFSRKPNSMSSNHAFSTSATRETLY

Molecule | solubility (Solubility) | stability (Stability / shelf life) | toxicity [1] | IC50 [2]
CC[C@H](C)[C@H](NC(=O)[C@H](Cc1ccc(O)cc1)NC(=O)[C@@H]1CCCN1C(=O)[C@H](CCCNC(=N)N)NC(=O)[C@H](CCCNC(=N)N)NC(=O)[C@@H]1CCCN1C(=O)[C@H](CCCCN)NC(=O)[C@H](CC(N)=O)NC(=O)[C@H](CCC(=O)O)NC(=O)[C@H](Cc1ccc(O)cc1)NC(=O)[C@H](CC(C)C)NC(=O)[C@H](CCC(=O)O)NC(=S)Nc1ccc2c(c1)C(=O)OC21c2ccc(O)cc2Oc2cc(O)ccc21)C(=O)N[C@@H](CC(C)C)C(=O)O [N-FTC-[Glu^1]NT, N-fluoresceyl thiocarbamyl-[Glu^1] neurotensin] | freely soluble | stable | 100% non-toxic | –
B1 | – | – | – | 550 pM
